# Peptide text beside a SMILES is read from it.
# How the values were obtained:
# Assay type in all cases: functional
# Rattus norvegicus [1] = organism: Rattus norvegicus; assay: Effect of compound on basal [Ca2+] and ODN induced [Ca2+] increase in cultured rat astrocytes measured at 10*e-6 conc (M)
# Rattus norvegicus [2] = organism: Rattus norvegicus; assay: Effect of compound on basal [Ca2+] and ODN induced [Ca2+] increase in cultured rat astrocytes measured at 10*e-8+10e-6 conc (M) in the presence of [D-Thr9]-ODN
# Rattus norvegicus [3] = organism: Rattus norvegicus; assay: Effect of compound on basal [Ca2+] and ODN induced [Ca2+] increase in cultured rat astrocytes measured at 10*e-8+10e-6 conc (M) in the presence of [Ala15]ODN. p<0.001
# Rattus norvegicus [4] = organism: Rattus norvegicus; assay: Effect of compound on basal [Ca2+] and ODN induced [Ca2+] increase in cultured rat astrocytes measured at 10*e-8+10e-6 conc (M) in the presence of [D-Leu15]-ODN
# Rattus norvegicus [5] = organism: Rattus norvegicus; assay: Effect of compound on basal [Ca2+] and ODN induced [Ca2+] increase in cultured rat astrocytes measured at 10*e-8+10e-6 conc (M) in the presence of [Ala9]ODN. p<0.001
# Rattus norvegicus [6] = organism: Rattus norvegicus; assay: Effect of compound on basal [Ca2+] and ODN induced [Ca2+] increase in cultured rat astrocytes measured at 10*e-8+10e-6 conc (M) in the presence of [D-Leu5-]OP
# Rattus norvegicus [7] = organism: Rattus norvegicus; assay: Effect of compound on basal [Ca2+] and ODN induced [Ca2+] increase in cultured rat astrocytes measured at 10*e-8 conc (M).
Structure (SMILES),[Ca2+] variation (Rattus norvegicus [1]) [nM],[Ca2+] variation (Rattus norvegicus [2]) [nM],[Ca2+] variation (Rattus norvegicus [3]) [nM],[Ca2+] variation (Rattus norvegicus [4]) [nM],[Ca2+] variation (Rattus norvegicus [5]) [nM],[Ca2+] variation (Rattus norvegicus [6]) [nM],[Ca2+] variation (Rattus norvegicus [7]) [nM]
CC(C)C[C@H](NC(=O)CNC(=O)[C@@H]1CCCN1C(=O)[C@@H](N)CCCNC(=N)N)C(=O)N[C@@H](C)C(=O)N[C@@H](CC(=O)O)C(=O)N[C@@H](CC(C)C)C(=O)N[C@@H](CCCCN)C(=O)O (H-RPGLADLK-OH),37,–,–,–,–,–,–
CC(C)C[C@H](NC(=O)CNC(=O)[C@@H]1CCCN1C(=O)[C@H](CCCN=C(N)N)NC(=O)[C@H](CC(=O)O)NC(=O)[C@@H](NC(=O)[C@H](CC(N)=O)NC(=O)[C@@H](NC(=O)[C@H](CC(=O)O)NC(=O)CNC(=O)[C@@H](NC(=O)[C@@H](NC(=O)[C@H](C)NC(=O)[C@@H](N)CCC(N)=O)[C@@H](C)O)C(C)C)C(C)C)[C@@H](C)O)C(=O)N[C@@H](CC(C)C)C(=O)N[C@@H](CC(=O)O)C(=O)N[C@@H](CC(C)C)C(=O)N[C@@H](CCCCN)C(=O)O [QATVGDVNTDRPGLLDLK] (H-QATVGDVNTDRPGLLDLK-OH),–,31,36,25,39,39,62
